Measurements taken from PMC7394242 (Journal of molecular biology, 2020).

B1: periplasmic/soluble domain of the antiholin RI (sRI), residues 25-97, with C-terminal histidine tag (domain or fragment, T4 phage, UniProt P13304 25-97, looked up)
chain: NVDPHFDKFMESGIRHVYMLFENKSVESSEQFYSFMRTTYKNDPCSSDFECIERGAEMAQSYARIMNIKLETE
modifications: disulfide bond between Cys69 and Cys75

What was measured:
sRI-sT complex = sRI-sT complex (Enterobacteria phage T4, UniProt P06808+P13304); experiment: biochemical; type: binding
sRI-sT complex, sequence (P06808 56-218, one chain of several): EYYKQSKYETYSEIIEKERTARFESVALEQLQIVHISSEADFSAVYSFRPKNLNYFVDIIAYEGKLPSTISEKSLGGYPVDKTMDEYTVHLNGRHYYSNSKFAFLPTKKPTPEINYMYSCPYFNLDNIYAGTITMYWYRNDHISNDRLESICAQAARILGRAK

crystal structure = target: the molecule itself; experiment: crystal structure

Molecule | Kd (sRI-sT complex) [µM] | stoichiometry N (crystal structure)
Nc1nc2c(ncn2[C@@H]2O[C@H](CO)[C@@H](O)[C@H]2O)c(=O)[nH]1 [guanosine] | 43 | 
B1 |  | 4
